# Read-outs that look alike come from different tables or passages of the source.
# Experiments:
# [1] = test system: inhibitor-selected HIV-1 IIIb passages; test: Phenotypic profile of selected HIV-1 passages; type: cell-based; settings: for EC50: Human immunodeficiency virus 1, IIIB
# [2] = test system: HIV-1 BaL; settings: primary CD4+ T-cells, 35 days, drug at tissue culture equivalent clinical Cmin (FTC 160 × EC50)
# [3] = test system: INSTI-resistant HIV-1 mutants (HXB2); test: microbe, parasite or virus in culture; type: cell-based
# [4] = test system: HIV-1 clonal variants; test: PhenoSense integrase assay, clonal variants from EVG/COBI/FTC/TDF virologic failures; type: cell-based
# Excerpt: Clonal Analysis of HIV-1 from Patients. Plasma from 16 patients treated in Studies GS-US-236-0102 and GS-US-236-0103 with confirmed virologic failure and resistance development in the HIV-1 integrase gene were sent to Monogram Biosciences (South San Francisco, CA) for clonal analysis. The HIV-1 RNA was isolated and the cDNA was synthesized using Monogram proprietary primers. Using proprietary primers, PCR amplification of the entire protease, reverse transcriptase, and integrase coding regions of the pol gene were performed. PCR products were inserted into T/A cloning vectors.
# Approximately 20 clones were chosen per patient sample for sequencing using proprietary primers. A subset of clones was chosen for phenotypic analysis based on the presence of INSTI resistance mutations. Resistance test vectors containing the patient-derived integrase coding region from selected clones were constructed using standard Monogram Biosciences protocols. […]
# values) in these clones were obtained through a contract study by Monogram Biosciences using the PhenoSense integrase assay. The fold-change from the NL4-3 wild-type reference vector values was determined.
compound,measurement,setting,value
"Cc1nnc(C(=O)NC(C)(C)c2nc(C(=O)NCc3ccc(F)cc3)c(O)c(=O)n2C)o1 [RAL, raltegravir]",Fold-Resistance Relative to HIV-1 IIIb,[1]; HIV-1-IIIb (reference),1 fold
same,EC50,"[1]; 480 h, selected virus EVG P2 (day 20, 7.2 nM)",25.9 nM
same,EC50,[1]; HIV-1-IIIb (unselected),8.8 nM
same,EC50,"[1]; selected virus BIC P3 (day 47, 6 nM)",18.1 nM
same,EC50,"[1]; selected virus BIC P5 (day 71, 12 nM)",18.3 nM
same,EC50,"[1]; selected virus BIC P6 (day 86, 24 nM)",24.4 nM
same,EC50,"[1]; selected virus BIC P8 (day 156, 96 nM)",28.8 nM
same,EC50,"[1]; selected virus BIC P9 (day 181, 192 nM)",41.7 nM
same,EC50,"[1]; selected virus BIC P10 (day 234, 384 nM)",29.3 nM
same,EC50,"[1]; selected virus DTG P3Lo (day 59, 6.4 nM)",11.8 nM
same,EC50,"[1]; selected virus DTG P4 (day 87, 9.6 nM)",23.2 nM
same,EC50,"[1]; selected virus DTG P5 (day 97, 14.4 nM)",28 nM
same,EC50,"[1]; selected virus DTG P7 (day 139, 32.4 nM)",39.7 nM
same,EC50,"[1]; selected virus DTG P9 (day 174, 72.9 nM)",43 nM
same,EC50,"[1]; selected virus DTG P10 (day 202, 109.4 nM)",56.9 nM
same,EC50,"[1]; selected virus EVG P4 (day 41, 28.8 nM)",26.9 nM
same,EC50,"[1]; selected virus EVG P6 (day 56, 115 nM)",19.9 nM
same,EC50,"[1]; selected virus EVG P7 (day 67, 230 nM)",28.7 nM
same,EC50,"[1]; selected virus EVG P9 (day 94, 922 nM)",44.9 nM
same,EC50,"[1]; selected virus EVG P10 (day 119, 1843 nM)",17 nM
same,Fold-Resistance Relative to HIV-1 IIIb,[1]; selected virus BIC P3,2 fold
same,Fold-Resistance Relative to HIV-1 IIIb,[1]; selected virus BIC P5,2.1 fold
same,Fold-Resistance Relative to HIV-1 IIIb,[1]; selected virus BIC P6,2.8 fold
same,Fold-Resistance Relative to HIV-1 IIIb,[1]; selected virus BIC P8,3.3 fold
same,Fold-Resistance Relative to HIV-1 IIIb,[1]; selected virus BIC P9,4.7 fold
same,Fold-Resistance Relative to HIV-1 IIIb,[1]; selected virus BIC P10,3.3 fold
same,Fold-Resistance Relative to HIV-1 IIIb,[1]; selected virus DTG P3Lo,1.3 fold
same,Fold-Resistance Relative to HIV-1 IIIb,[1]; selected virus DTG P4,2.6 fold
same,Fold-Resistance Relative to HIV-1 IIIb,[1]; selected virus DTG P5,3.2 fold
same,Fold-Resistance Relative to HIV-1 IIIb,[1]; selected virus DTG P7,4.5 fold
same,Fold-Resistance Relative to HIV-1 IIIb,[1]; selected virus DTG P9,4.9 fold
same,Fold-Resistance Relative to HIV-1 IIIb,[1]; selected virus DTG P10,6.4 fold
same,Fold-Resistance Relative to HIV-1 IIIb,[1]; selected virus EVG P2,2.9 fold
same,Fold-Resistance Relative to HIV-1 IIIb,[1]; selected virus EVG P4,3.0 fold
same,Fold-Resistance Relative to HIV-1 IIIb,[1]; selected virus EVG P6,2.3 fold
same,Fold-Resistance Relative to HIV-1 IIIb,[1]; selected virus EVG P7,3.3 fold
same,Fold-Resistance Relative to HIV-1 IIIb,[1]; selected virus EVG P9,5.1 fold
same,Fold-Resistance Relative to HIV-1 IIIb,[1]; selected virus EVG P10,1.9 fold
same,Frequency of Viral Breakthrough with RAMs,[2],58%
same,p24+ Wells,[2],12/12
same,EC50,"[3]; Human immunodeficiency virus 1, HXB2, IN mutant E92Q",38 ± 9 nM
same,EC50,"[3]; Human immunodeficiency virus 1, HXB2, IN mutant E92Q/N155H",624 ± 213 nM
same,EC50,"[3]; Human immunodeficiency virus 1, HXB2, IN mutant E138K/Q148K",1530 nM
same,EC50,"[3]; Human immunodeficiency virus 1, HXB2, IN mutant G140S/Q148R",2460 nM
same,EC50,"[3]; Human immunodeficiency virus 1, HXB2, IN mutant M50I (BIC/DTG selection)",7.4 ± 1.7 nM
same,EC50,"[3]; Human immunodeficiency virus 1, HXB2, IN mutant M50I/R263K (BIC selection)",7.7 ± 2.1 nM
same,EC50,"[3]; Human immunodeficiency virus 1, HXB2, IN mutant M50I/S119R/R263K (DTG selection)",19 ± 7 nM
same,EC50,"[3]; Human immunodeficiency virus 1, HXB2, IN mutant N155H",188 ± 37 nM
same,EC50,"[3]; Human immunodeficiency virus 1, HXB2, IN mutant N155H/Q148R",2180 nM
same,EC50,"[3]; Human immunodeficiency virus 1, HXB2, IN mutant Q148R",427 ± 52 nM
same,EC50,"[3]; Human immunodeficiency virus 1, HXB2, IN mutant R263K (BIC/DTG selection), Table 7",7.7 ± 1.2 nM
same,EC50,"[3]; Human immunodeficiency virus 1, HXB2, IN mutant R263K, Table 6",10.4 ± 1.4 nM
same,EC50,"[3]; Human immunodeficiency virus 1, HXB2, IN mutant S119R (DTG selection)",15 ± 5 nM
same,EC50,"[3]; Human immunodeficiency virus 1, HXB2, IN mutant S119R/R263K (DTG selection)",12 ± 2 nM
same,EC50,"[3]; Human immunodeficiency virus 1, HXB2, IN mutant S153Y (DTG selection)",15 ± 4 nM
same,EC50,"[3]; Human immunodeficiency virus 1, HXB2, IN mutant S153Y/R263K (DTG selection)",22 ± 2 nM
same,EC50,"[3]; Human immunodeficiency virus 1, HXB2, IN mutant Y143R",418 ± 151 nM
same,EC50,"[3]; Human immunodeficiency virus 1, HXB2, WT (HXB2), Table 6, read-out: EC50",9.4 ± 1.4 nM
same,EC50,"[3]; Human immunodeficiency virus 1, HXB2, WT (HXB2), Table 7, read-out: EC50",7.1 ± 1.1 nM
same,cross-resistance of BIC-selected variants,[3]; all BIC-selected variants,< 8 fold
same,Susceptibility (Fold-change vs. WT),[4]; clone 6041-11: E92Q,3.67 fold-change
same,Susceptibility (Fold-change vs. WT),[4]; clone 6101-12: Q148R,32 fold-change
same,Susceptibility (Fold-change vs. WT),[4]; clone 6101-14: N155H,6.56 fold-change
same,Susceptibility (Fold-change vs. WT),[4]; clone 6101-15: E92Q,4.41 fold-change
same,Susceptibility (Fold-change vs. WT),"[4]; clone 6322-1: N155H, G163R",15 fold-change
same,Susceptibility (Fold-change vs. WT),[4]; clone 6322-11: N155H,11 fold-change
same,Susceptibility (Fold-change vs. WT),[4]; clone 6503-10: E92Q,3.88 fold-change
same,Susceptibility (Fold-change vs. WT),[4]; clone 6545-7: N155H,15 fold-change
same,Susceptibility (Fold-change vs. WT),[4]; clone 6648-7: E92Q,4.20 fold-change
same,Susceptibility (Fold-change vs. WT),[4]; clone 6648-10: E92Q,4.20 fold-change
same,Susceptibility (Fold-change vs. WT),[4]; clone 6648-11: E92Q,3.97 fold-change
same,Susceptibility (Fold-change vs. WT),[4]; clone 6667-1: E92Q,5.09 fold-change
same,Susceptibility (Fold-change vs. WT),"[4]; clone 7299-11: Q148R, G140C",24 fold-change
same,Susceptibility (Fold-change vs. WT),[4]; clone 7332-10: None,0.79 fold-change
same,Susceptibility (Fold-change vs. WT),[4]; clone 7425-11: E92Q,1.95 fold-change
same,Susceptibility (Fold-change vs. WT),"[4]; clone 7476-5: T66I, E157Q",1.63 fold-change
same,Susceptibility (Fold-change vs. WT),"[4]; clone 7476-9: T66I, T97A, E157Q",2.45 fold-change
same,Susceptibility (Fold-change vs. WT),[4]; clone 7562-12: N155H,13 fold-change

# Reference: publication PMC5118987 (Antimicrobial Agents and Chemotherapy, 2016)
